Patent US20250320213A1, “Nitrogen-Containing Heterocyclic Compounds” (Pfizer Inc., priority 2024, published 2025)

Legend:
STAT6 = molecular target: T1, STAT6 (Homo sapiens, UniProt P42226); assay: STAT6 Reporter Luciferase Assay (IL-13 stimulated HaCaT keratinocyte NanoLuc reporter cells); format: cell-based; settings: IL-13 stimulated HaCaT STAT6 NanoLuc reporter cells; read-out: Reporter EC50
T1 construct: stably transfected HaCaT keratinocyte cell line, which expresses NanoLuc luciferase reporter gene under the transcriptional control of the STAT6 responsive promoter; endogenous in cells; host or cells: HaCaT keratinocyte reporter cell line (stably transfected with a NanoLuc reporter)
T1 sequence (P42226 1-847): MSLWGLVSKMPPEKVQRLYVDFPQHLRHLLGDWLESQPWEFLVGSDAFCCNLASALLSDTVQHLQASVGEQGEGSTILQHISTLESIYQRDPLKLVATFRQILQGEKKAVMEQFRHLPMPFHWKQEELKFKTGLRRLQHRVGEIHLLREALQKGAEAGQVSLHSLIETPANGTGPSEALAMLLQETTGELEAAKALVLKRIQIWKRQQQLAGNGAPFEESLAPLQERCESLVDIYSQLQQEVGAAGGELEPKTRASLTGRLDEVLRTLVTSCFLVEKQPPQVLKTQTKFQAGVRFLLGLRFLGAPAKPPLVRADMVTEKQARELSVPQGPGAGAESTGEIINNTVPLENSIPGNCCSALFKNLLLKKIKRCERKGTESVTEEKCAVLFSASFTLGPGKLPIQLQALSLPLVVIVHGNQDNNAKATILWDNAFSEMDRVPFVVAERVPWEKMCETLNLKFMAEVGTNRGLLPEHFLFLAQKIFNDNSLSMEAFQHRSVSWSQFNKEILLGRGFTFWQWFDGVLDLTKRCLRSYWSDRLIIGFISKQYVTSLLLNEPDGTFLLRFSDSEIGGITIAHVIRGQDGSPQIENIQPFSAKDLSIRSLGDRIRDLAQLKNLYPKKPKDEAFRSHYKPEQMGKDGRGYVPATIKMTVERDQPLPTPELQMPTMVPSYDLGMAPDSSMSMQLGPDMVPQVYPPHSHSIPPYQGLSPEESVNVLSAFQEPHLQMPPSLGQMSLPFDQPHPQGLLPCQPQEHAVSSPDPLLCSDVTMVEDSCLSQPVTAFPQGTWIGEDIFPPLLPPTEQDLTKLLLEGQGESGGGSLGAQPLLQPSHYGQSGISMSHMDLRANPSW
How it was run: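 Compounds were tested as 11-point, 4-fold series in duplicate, applied for 2 h at 37 °C in low-serum (2% FBS) DMEM. The cells were a stable HaCaT line with NanoLuc under a STAT6-responsive IL-13Ra2 promoter. After 4 h with 0.12 nM IL-13, Nano-Glo luminescence was measured.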

[1] = system: CCL17 secretion in peripheral human whole blood; assay: Human Whole Blood (HWB) CCL17 TR-FRET Assay (IL-13 stimulated CCL17 secretion); format: cell-based; settings: human whole blood, IL-13 stimulated
How it was run: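 TR-FRET sandwich immunoassay (665/615 nm ratio) read CCL17 in serum from heparinized whole blood after 16 h RT detection. Blood was exposed to compound for 2 h at 37 °C, then to 10 ng/mL IL-13 (final) for 48 h. IC50 from 11-point, 3-fold titrations in duplicate.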

| EC50 (STAT6) | IC50 ([1]; 48 hours) | IC50 ([1]; Homo sapiens, 48 h) | Compound |
| --- | --- | --- | --- |
| 20 nM | 38 nM | – | CN(C)C(=O)Nc1ccc(CNC(=O)c2nn(C3CCOC3)c3c2CN(c2ccc(C(=O)N(C)C)cn2)CC3)cc1 (single isomer, unassigned) [Example 190, rel-(R or S)-5-(5-(dimethylcarbamoyl)pyridin-2-yl)-N-(4-(3,3-dimethylureido)benzyl)-1-(tetrahydrofuran-3-yl)-4,5,6,7-tetrahydro-1H-pyrazolo[4,3-c]pyridine-3-carboxamide] |
| 32 nM | 126 nM | – | CN(C)C(=O)Nc1ccc(CNC(=O)c2nn(C3CCOC3)c3c2CN(c2ccc(C(=O)N(C)C)cn2)CC3)cc1 (single isomer, unassigned) [Example 191, rel-(R or S)-5-(5-(dimethylcarbamoyl)pyridin-2-yl)-N-(4-(3,3-dimethylureido)benzyl)-1-(tetrahydrofuran-3-yl)-4,5,6,7-tetrahydro-1H-pyrazolo[4,3-c]pyridine-3-carboxamide] |
| 1 nM | 16 nM | – | CC1CN(c2ccc(-c3nccn3C)cn2)Cc2c(C(=O)NCc3ccc(NC(=O)N(C)C)cc3)nn(C)c21 (single isomer, unassigned) [Example 203, rel-(R or S)-N-(4-(3,3-dimethylureido)benzyl)-1,7-dimethyl-5-(5-(1-methyl-1H-imidazol-2-yl)pyridin-2-yl)-4,5,6,7-tetrahydro-1H-pyrazolo[4,3-c]pyridine-3-carboxamide] |
| 16 nM | 246 nM | – | CC1CN(c2ccc(-c3nccn3C)cn2)Cc2c(C(=O)NCc3ccc(NC(=O)N(C)C)cc3)nn(C)c21 (single isomer, unassigned) [Example 204, rel-(R or S)-N-(4-(3,3-dimethylureido)benzyl)-1,7-dimethyl-5-(5-(1-methyl-1H-imidazol-2-yl)pyridin-2-yl)-4,5,6,7-tetrahydro-1H-pyrazolo[4,3-c]pyridine-3-carboxamide] |
| 14 nM | 277 nM | – | CCn1nc(C(=O)NCc2ccc(NC(=O)N(C)C)cc2)c2c1[C@H]1CC[C@H]1N(c1ccc(C(=O)N(C)C)cn1)C2 (single isomer, unassigned) [Example 230] |
| 2 nM | 23 nM | – | CCn1nc(C(=O)NCc2ccc(NC(=O)N(C)C)cc2)c2c1[C@H]1CC[C@H]1N(c1ccc(C(=O)N(C)C)cn1)C2 (single isomer, unassigned) [Example 231] |
| 2 nM | 5 nM | – | CCc1nc(C(=O)NCc2ccc(NC(=O)N(C)C)cc2)c2n1C(C)CN(c1ccc(C(=O)N(C)C)cn1)C2 (single isomer, unassigned) [Example 232, rel-(R or S)-7-(5-(dimethylcarbamoyl)pyridin-2-yl)-N-(4-(3,3-dimethylureido)benzyl)-3-ethyl-5-methyl-5,6,7,8-tetrahydroimidazo[1,5-a]pyrazine-1-carboxamide] |
| 42 nM | 78 nM | – | CCc1nc(C(=O)NCc2ccc(NC(=O)N(C)C)cc2)c2n1C(C)CN(c1ccc(C(=O)N(C)C)cn1)C2 (single isomer, unassigned) [Example 233, rel-(R or S)-7-(5-(dimethylcarbamoyl)pyridin-2-yl)-N-(4-(3,3-dimethylureido)benzyl)-3-ethyl-5-methyl-5,6,7,8-tetrahydroimidazo[1,5-a]pyrazine-1-carboxamide] |
| 20 nM | – | 80 nM | CCC(C)n1nc(C(=O)NCc2ccc(NC(=O)N(C)C)cc2)c2c1CCN(c1ccc(C(=O)N(C)C)cn1)C2 (single isomer, unassigned) [Example 234, rel-(R or S)-1-(sec-butyl)-5-(5-(dimethylcarbamoyl)pyridin-2-yl)-N-(4-(3,3-dimethylureido)benzyl)-4,5,6,7-tetrahydro-1H-pyrazolo[4,3-c]pyridine-3-carboxamide] |
| 15 nM | 85 nM | – | CCC(C)n1nc(C(=O)NCc2ccc(NC(=O)N(C)C)cc2)c2c1CCN(c1ccc(C(=O)N(C)C)cn1)C2 (single isomer, unassigned) [Example 235, rel-(R or S)-1-(sec-butyl)-5-(5-(dimethylcarbamoyl)pyridin-2-yl)-N-(4-(3,3-dimethylureido)benzyl)-4,5,6,7-tetrahydro-1H-pyrazolo[4,3-c]pyridine-3-carboxamide] |
| 7 nM | – | 83 nM | CC(C1CC1)n1nc(C(=O)NCc2ccc(NC(=O)N(C)C)cc2)c2c1CCN(c1ccc(C(=O)N(C)C)cn1)C2 (single isomer, unassigned) [Example 237, rel-(R or S)-1-(1-cyclopropylethyl)-5-(5-(dimethylcarbamoyl)pyridin-2-yl)-N-(4-(3,3-dimethylureido)benzyl)-4,5,6,7-tetrahydro-1H-pyrazolo[4,3-c]pyridine-3-carboxamide] |
| 2 nM | 28 nM | – | CCn1nc(C(=O)NCc2ccc(NC(=O)N(C)C)cc2)c2c1CC(C(F)(F)F)N(c1ccc(C(=O)N(C)C)cn1)C2 (single isomer, unassigned) [Example 250, rel-(R or S)-5-(5-(dimethylcarbamoyl)pyridin-2-yl)-N-(4-(3,3-dimethylureido)benzyl)-1-ethyl-6-(trifluoromethyl)-4,5,6,7-tetrahydro-1H-pyrazolo[4,3-c]pyridine-3-carboxamide] |
| 10 nM | 80 nM | – | CCn1nc(C(=O)NCc2ccc(NC(=O)N(C)C)cc2)c2c1CC(C(F)(F)F)N(c1ccc(C(=O)N(C)C)cn1)C2 (single isomer, unassigned) [Example 251, rel-(R or S)-5-(5-(dimethylcarbamoyl)pyridin-2-yl)-N-(4-(3,3-dimethylureido)benzyl)-1-ethyl-6-(trifluoromethyl)-4,5,6,7-tetrahydro-1H-pyrazolo[4,3-c]pyridine-3-carboxamide] |
| 2 nM | – | 8 nM | C[C@H]1CN(c2ccc(C(=O)N(C)C)cn2)Cc2c(C(=O)NCc3ccc(NC(=O)N(C)C)cc3)nn(C3CCOCC3)c21 (single isomer, unassigned) [Example 258] |
| 50 nM | 984 nM | – | CCC1Cc2c(c(C(=O)NCc3ccc(NC(=O)N(C)C)cc3)nn2C(C)C)CN1c1ccc(C(=O)N(C)C)cn1 (single isomer, unassigned) [Example 267, rel-(R or S)-5-(5-(dimethylcarbamoyl)pyridin-2-yl)-N-(4-(3,3-dimethylureido)benzyl)-6-ethyl-1-isopropyl-4,5,6,7-tetrahydro-1H-pyrazolo[4,3-c]pyridine-3-carboxamide] |
| 3 nM | 21 nM | – | CCC1Cc2c(c(C(=O)NCc3ccc(NC(=O)N(C)C)cc3)nn2C(C)C)CN1c1ccc(C(=O)N(C)C)cn1 (single isomer, unassigned) [Example 268, rel-(R or S)-5-(5-(dimethylcarbamoyl)pyridin-2-yl)-N-(4-(3,3-dimethylureido)benzyl)-6-ethyl-1-isopropyl-4,5,6,7-tetrahydro-1H-pyrazolo[4,3-c]pyridine-3-carboxamide] |
| 87 nM | 834 nM | – | CCC1Cc2c(c(C(=O)NCc3ccc(NC(=O)N(C)C)cc3)nn2C)CN1c1ccc(C(=O)N(C)C)cn1 (single isomer, unassigned) [Example 269, rel-(R or S)-5-(5-(dimethylcarbamoyl)pyridin-2-yl)-N-(4-(3,3-dimethylureido)benzyl)-6-ethyl-1-methyl-4,5,6,7-tetrahydro-1H-pyrazolo[4,3-c]pyridine-3-carboxamide] |
